From patent US20260092083A1, “VANCOMYCIN DERIVATIVES WITH SIDEROPHORE MODIFICATION AS NOVEL REPURPOSED ANTIBIOTICS TO COMBAT GRAM-NEGATIVE BACTERIAL INFECTION” (priority 2023, published 2026) come the findings set out here.

Molecules are shown by their SMILES. Converted amounts (≈) assume the structure as drawn.

Type in all cases: cell-based
In assay [1] the test system is N. gonorrhoeae WHO-Z. In words: Broth microdilution MIC, N. gonorrhoeae. To be noted: Neisseria gonorrhoeae, read-out: MIC (μg/mL) Gram-negative GC. As for the experimental part: (§1) The test compounds including vancomycin hydrochloride were supplied as a 6.4 mg/mL solution in 100% dimethyl sulfoxide (DMSO) aliquoted into individual wells of a 96-well plate (50 μL per well). […] Standardized inocula were added to the MIC test plates, which were incubated for the prescribed times at 35° C. The N. gonorrhoeae strain was incubated in an atmosphere containing 5% CO2.
(§2) The final optical density of each well at 600 nm was measured using a Tecan Spark plate reader. The compound concentration versus OD600 data were then curve fit using custom software. An MIC value was defined as the lowest compound concentration that led to an OD600 value≤0.15 for the E. coli, K. pneumoniae, P. aeruginosa, A. baumannii, or S. aureus strains. For the N. gonorrhoeae strain, an OD600 value≤0.19 was used as a cutoff to define an MIC value; this higher cut-off value was required because the N. gonorrhoeae MIC plates were covered with plastic seals that increased the background OD600 value.
(§3) JMI Laboratories followed current CLSI quality assurance practices when performing the susceptibility tests. MIC values were validated by concurrently testing the CLSI-recommended ATCC QC reference strains S. aureus ATCC 29213 and K. pneumoniae ATCC 700603. The inoculum density during susceptibility testing was monitored by bacterial colony counts. Where applicable, QC ranges for tested reference strains were those ranges approved or published by CLSI for testing in CAMHB. […] Importantly, the CLSI reference method for testing N. gonorrhoeae is the agar dilution MIC method, which was not used here. Thus, CLSI MIC QC ranges for N. gonorrhoeae could not be applied to the antimicrobials studied here.
(§4) Abbreviations: EC, E. coli (wild-type) BW25113; EC efflux^−, E. coli (tolC) JW5503-1; KPN, K. pneumoniae ATCC 700603; PSA, P. aeruginosa PAO1; PSA efflux^−, P. aeruginosa (multi-pump-gene mutant) PAM1626; ACB, A. baumannii JMI #1186154; GC, N. gonorrhoeae WHO-Z; SA, S. aureus ATCC 29213. Broth microdilution MIC values were measured in iron-depleted CAMHB for all strains except for GC, which was tested in fastidious broth.

For assay [2], the system named is K. pneumoniae ATCC 700603. Description: Broth microdilution MIC, K. pneumoniae. To be noted: Klebsiella pneumoniae, ATCC700603, read-out: MIC (μg/mL) Gram-negative KPN. Here is the method: as §1, §2, §3, §4
On the technique in general: In broth dilution the organism is exposed to a series of concentrations in liquid medium.

Assay [3] has as its system E. coli (tolC) JW5503-1. Description: Broth microdilution MIC, E. coli efflux-deficient (tolC). The conditions noted are these: Escherichia coli, read-out: MIC (μg/mL) Gram-negative EC Efflux. Here is the method: as §1, §2, §3, §4
For assay [4], the system named is P. aeruginosa (multi-pump-gene mutant) PAM1626. In words: Broth microdilution MIC, P. aeruginosa efflux-deficient. The conditions noted are these: Pseudomonas aeruginosa, read-out: MIC (μg/mL) Gram-negative PSA Efflux. As for the experimental part: as §1, §2, §3, §4
The subject of assay [5] is A. baumannii JMI #1186154. Description: Broth microdilution MIC, A. baumannii. To be noted: Acinetobacter baumannii, iron-depleted CAMHB, OD600 ≤0.15, read-out: MIC (μg/mL) Gram-negative ACB. As for the experimental part: as §1, §2, §3, §4
For assay [6], the system named is E. coli (wild-type) BW25113. In words: Broth microdilution MIC, E. coli wild-type. The conditions noted are these: Escherichia coli, iron-depleted CAMHB, OD600 ≤0.15, read-out: MIC (μg/mL) Gram-negative EC. Here is the method:
as §1, §2, §3, §4

Assay [7] relates to S. aureus ATCC 29213. Description: Broth microdilution MIC, S. aureus. To be noted: Staphylococcus aureus, ATCC29213, iron-depleted CAMHB, OD600 ≤0.15, read-out: MIC (μg/mL) Gram positive SA. Here is the method:
as §1, §2, §3, §4

In assay [8] the test system is P. aeruginosa PAO1. Description: Broth microdilution MIC, P. aeruginosa. The conditions noted are these: Pseudomonas aeruginosa, iron-depleted CAMHB, OD600 ≤0.15, read-out: MIC (μg/mL) Gram-negative PSA. Here is the method:
as §1, §2, §3, §4

`CNC(CC(C)C)C(=O)N[C@H]1C(=O)N[C@@H](CC(N)=O)C(=O)N[C@H]2C(=O)N[C@H]3C(=O)N[C@H](C(=O)N[C@@H](C(=O)NCCNC(=O)c4ccc(O)c(O)c4Cl)c4cc(O)cc(O)c4-c4cc3ccc4O)[C@H](O)c3ccc(c(Cl)c3)Oc3cc2cc(c3OC2O[C@H](CO)C(O)C(O)[C@H]2O[C@H]2CC(C)(N)[C@H](O)C(C)O2)Oc2ccc(cc2Cl)[C@H]1O` (stereo in doubt) [Compound 3]: the MIC in assay [1] was greater than 64 µg/mL; in assay [2], greater than 64 µg/mL; in assay [3], greater than 64 µg/mL; in assay [4] it was greater than 64 µg/mL; in assay [5], 2 µg/mL (≈ 1.2 µM); in assay [6], 16 µg/mL (≈ 9.63 µM). The MIC in assay [7] was 4 µg/mL (≈ 2.41 µM); in assay [8] it was greater than 64 µg/mL.

`CNC(CC(C)C)C(=O)N[C@H]1C(=O)N[C@@H](CC(N)=O)C(=O)N[C@H]2C(=O)N[C@H]3C(=O)N[C@H](C(=O)N[C@@H](C(=O)NCCOCCNC(=O)c4ccc(O)c(O)c4Cl)c4cc(O)cc(O)c4-c4cc3ccc4O)[C@H](O)c3ccc(c(Cl)c3)Oc3cc2cc(c3OC2O[C@H](CO)C(O)C(O)[C@H]2O[C@H]2CC(C)(N)[C@H](O)C(C)O2)Oc2ccc(cc2Cl)[C@H]1O` (stereo in doubt) [Compound 10]: the MIC in assay [1] was greater than 64 µg/mL; in assay [2], greater than 64 µg/mL; in assay [3], greater than 64 µg/mL; in assay [4], greater than 64 µg/mL; in assay [5], 2 µg/mL (≈ 1.17 µM); in assay [6] it was 16 µg/mL (≈ 9.38 µM). The MIC in assay [7] was 4 µg/mL (≈ 2.34 µM); in assay [8] it was greater than 64 µg/mL.

In the case of `CN[C@H](CC(C)C)C(=O)N[C@H]1C(=O)N[C@@H](CC(N)=O)C(=O)N[C@H]2C(=O)N[C@H]3C(=O)N[C@H](C(=O)N[C@H](C(=O)NCCOCCOCCNC(=O)c4ccc(O)c(O)c4Cl)c4cc(O)cc(O)c4-c4cc3ccc4O)[C@H](O)c3ccc(c(Cl)c3)Oc3cc2cc(c3O[C@@H]2O[C@H](CO)C(O)C(O)[C@H]2O[C@H]2CC(C)(N)[C@H](O)[C@H](C)O2)Oc2ccc(cc2Cl)[C@H]1O` (stereo in doubt) [Compound 11], the MIC in assay [1] is greater than 64 µg/mL; in assay [2], greater than 64 µg/mL; in assay [3], greater than 64 µg/mL; in assay [4], greater than 64 µg/mL; in assay [5], 1 µg/mL (≈ 0.571 µM); in assay [6], 64 µg/mL (≈ 36.6 µM). The MIC in assay [7] was 4 µg/mL (≈ 2.29 µM); in assay [8], greater than 64 µg/mL.

As for `CNC(CC(C)C)C(=O)N[C@H]1C(=O)N[C@@H](CC(N)=O)C(=O)N[C@H]2C(=O)N[C@H]3C(=O)N[C@H](C(=O)N[C@@H](C(=O)NCc4cn(CCNC(=O)c5cccc(O)c5O)nn4)c4cc(O)cc(O)c4-c4cc3ccc4O)[C@H](O)c3ccc(c(Cl)c3)Oc3cc2cc(c3OC2O[C@H](CO)C(O)C(O)[C@H]2O[C@H]2CC(C)(N)[C@H](O)C(C)O2)Oc2ccc(cc2Cl)[C@H]1O` (stereo in doubt) [Compound 14], the MIC in assay [1] was greater than 64 µg/mL; in assay [2] it was greater than 64 µg/mL; in assay [3] it was greater than 64 µg/mL; in assay [4], greater than 64 µg/mL; in assay [5] it was 16 µg/mL (≈ 9.36 µM); in assay [6] it was greater than 64 µg/mL. In addition, the figures for the MIC in assay [7] and in assay [8] were 4 µg/mL (≈ 2.34 µM) and greater than 64 µg/mL, respectively.

With `CN[C@H](CC(C)C)C(=O)N[C@H]1C(=O)N[C@@H](CC(N)=O)C(=O)N[C@H]2C(=O)N[C@H]3C(=O)N[C@H](C(=O)N[C@H](C(=O)NCCOCCOCCNS(=O)(=O)c4ccc(O)c(O)c4)c4cc(O)cc(O)c4-c4cc3ccc4O)[C@H](O)c3ccc(c(Cl)c3)Oc3cc2cc(c3O[C@@H]2O[C@H](CO)C(O)C(O)[C@H]2O[C@H]2CC(C)(N)[C@H](O)[C@H](C)O2)Oc2ccc(cc2Cl)[C@H]1O` (stereo in doubt) [Compound 18], the MIC is greater than 64 µg/mL in assay [1]; greater than 64 µg/mL in assay [2]; greater than 64 µg/mL in assay [3]; greater than 64 µg/mL in assay [4]; 1 µg/mL (≈ 0.571 µM) in assay [5]; 64 µg/mL (≈ 36.5 µM) in assay [6]. Further, the MIC in assay [7] is 4 µg/mL (≈ 2.28 µM); in assay [8], greater than 64 µg/mL.

For the molecule `CNC(CC(C)C)C(=O)NC1C(=O)NC(CC(N)=O)C(=O)NC2C(=O)NC3C(=O)NC(C(=O)N[C@H](C(=O)NCCCNC(=O)c4cc(=O)c(O)c[nH]4)c4cc(O)cc(O)c4-c4cc3ccc4O)C(O)c3ccc(c(Cl)c3)Oc3cc2cc(c3OC2OC(CO)C(O)C(O)C2OC2CC(C)(N)C(O)C(C)O2)Oc2ccc(cc2Cl)C1O` (stereo in doubt) [Compound 20], the MIC in assay [1] was greater than 64 µg/mL; in assay [2], greater than 64 µg/mL; in assay [3] it was 64 µg/mL (≈ 39 µM); in assay [4], 64 µg/mL (≈ 39 µM); in assay [5] it was 32 µg/mL (≈ 19.5 µM); in assay [6], 32 µg/mL (≈ 19.5 µM). For the same molecule, the MIC in assay [7] came to 32 µg/mL (≈ 19.5 µM); in assay [8] it was 64 µg/mL (≈ 39 µM).

With `CNC(CC(C)C)C(=O)NC1C(=O)NC(CC(N)=O)C(=O)NC2C(=O)NC3C(=O)NC(C(=O)N[C@H](C(=O)NCCCCNC(=O)c4cc(=O)c(O)c[nH]4)c4cc(O)cc(O)c4-c4cc3ccc4O)C(O)c3ccc(c(Cl)c3)Oc3cc2cc(c3OC2OC(CO)C(O)C(O)C2OC2CC(C)(N)C(O)C(C)O2)Oc2ccc(cc2Cl)C1O` (stereo in doubt) [Compound 21], the MIC in assay [1] is greater than 64 µg/mL; in assay [2], greater than 64 µg/mL; in assay [3], 64 µg/mL (≈ 38.6 µM); in assay [4], greater than 64 µg/mL; in assay [5], 32 µg/mL (≈ 19.3 µM); in assay [6] it was 32 µg/mL (≈ 19.3 µM). Further, the MIC in assay [7] is 32 µg/mL (≈ 19.3 µM); in assay [8], 64 µg/mL (≈ 38.6 µM).

With `CNC(CC(C)C)C(=O)NC1C(=O)NC(CC(N)=O)C(=O)NC2C(=O)NC3C(=O)NC(C(=O)N[C@H](C(=O)NCCCN4C(=O)c5cc(O)c(O)cc5C4=O)c4cc(O)cc(O)c4-c4cc3ccc4O)C(O)c3ccc(c(Cl)c3)Oc3cc2cc(c3OC2OC(CO)C(O)C(O)C2OC2CC(C)(N)C(O)C(C)O2)Oc2ccc(cc2Cl)C1O` (some centres unmarked) [Compound 1], the MIC in assay [1] is greater than 64 µg/mL; in assay [2], greater than 64 µg/mL; in assay [3], 64 µg/mL (≈ 38.4 µM); in assay [4], greater than 64 µg/mL; in assay [5], 32 µg/mL (≈ 19.2 µM); in assay [6], 64 µg/mL (≈ 38.4 µM). For the same molecule, the MIC in assay [7] was 8 µg/mL (≈ 4.8 µM); in assay [8], greater than 64 µg/mL.

With `CN[C@H](CC(C)C)C(=O)N[C@H]1C(=O)N[C@@H](CC(N)=O)C(=O)N[C@H]2C(=O)N[C@H]3C(=O)N[C@H](C(=O)N[C@H](C(=O)NCCCCN4C(=O)c5cc(O)c(O)cc5C4=O)c4cc(O)cc(O)c4-c4cc3ccc4O)[C@H](O)c3ccc(c(Cl)c3)Oc3cc2cc(c3O[C@@H]2O[C@H](CO)C(O)C(O)[C@H]2O[C@H]2CC(C)(N)[C@H](O)[C@H](C)O2)Oc2ccc(cc2Cl)[C@H]1O` (some centres unmarked) [Compound 2], the MIC in assay [1] is greater than 64 µg/mL; in assay [2], greater than 64 µg/mL; in assay [3], 32 µg/mL (≈ 19 µM); in assay [4], greater than 64 µg/mL; in assay [5], 32 µg/mL (≈ 19 µM); in assay [6], 32 µg/mL (≈ 19 µM). The MIC is 8 µg/mL (≈ 4.76 µM) in assay [7] and greater than 64 µg/mL in assay [8].

As to `CN[C@H](CC(C)C)C(=O)N[C@H]1C(=O)N[C@@H](CC(N)=O)C(=O)N[C@H]2C(=O)N[C@H]3C(=O)N[C@H](C(=O)N[C@H](C(=O)NCCCNC(=O)c4ccc(O)c(O)c4Cl)c4cc(O)cc(O)c4-c4cc3ccc4O)[C@H](O)c3ccc(c(Cl)c3)Oc3cc2cc(c3O[C@@H]2O[C@H](CO)C(O)C(O)[C@H]2O[C@H]2CC(C)(N)[C@H](O)[C@H](C)O2)Oc2ccc(cc2Cl)[C@H]1O` (some centres unmarked) [Compound 4], the MIC in assay [1] was greater than 64 µg/mL; in assay [2], greater than 64 µg/mL; in assay [3] it was greater than 64 µg/mL; in assay [4], greater than 64 µg/mL; in assay [5], 1 µg/mL (≈ 0.597 µM); in assay [6], 8 µg/mL (≈ 4.77 µM). The MIC in assay [7] was 2 µg/mL (≈ 1.19 µM); in assay [8], greater than 64 µg/mL.
